Experimental data reported in ChEMBL document CHEMBL1201862, “PubChem BioAssay data set” (2004).
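The compound was tested at five concentrations on cells cultured in 96-well plates, with a 48-hour exposure period. Here, GI50 denotes the concentration required for 50% inhibition of growth.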 Activity calls are given as the source filed them. Cut-off read from the data, not from the text of the source: active = GI50 up to about 1.1 µM and inactive = higher.

Tests used:
Assay in all cases: growth of human tumour cells (NCI), 48 h
SK-MEL-5 = system: SK-MEL-5
MCF7 = system: MCF7
ACHN = system: ACHN
MOLT-4 = system: MOLT-4
SNB-75 = system: SNB-75
M14 = system: M14
UO-31 = system: UO-31
NCI-H23 = system: NCI-H23
RXF 393 = system: RXF 393
SF-295 = system: SF-295
SK-OV-3 = system: SK-OV-3
SK-MEL-28 = system: SK-MEL-28
T47D = system: T47D
K562 = system: K562
RPMI-8226 = system: RPMI-8226
A549 = system: A549
NCI-H226 = system: NCI-H226
OVCAR-5 = system: OVCAR-5

Measured: GI50

O=C1C=CC(=O)c2c1ccc1c3ccccc3n(Cc3cccc([N+](=O)[O-])c3)c21
inactive: SK-MEL-5 53.3 µM | MCF7 22.3 µM | ACHN 18.2 µM | MOLT-4 8.65 µM | SNB-75 > 78.2 µM | M14 27.7 µM | UO-31 50 µM | NCI-H23 21.7 µM | RXF 393 22.5 µM | SF-295 > 100 µM | SK-OV-3 > 100 µM | SK-MEL-28 > 43.6 µM | T47D 26.4 µM | K562 6.92 µM | RPMI-8226 17.8 µM | A549 > 100 µM | NCI-H226 99.3 µM | OVCAR-5 > 100 µM

Cn1c(CC(O)c2nc3ccccc3n2C)nc2ccccc21 (stereo unspecified)
inactive: SK-MEL-5 > 32.8 µM | MCF7 > 15.9 µM | ACHN > 23.6 µM | MOLT-4 > 13.7 µM | SNB-75 > 100 µM | M14 > 29.2 µM | UO-31 > 6.37 µM | NCI-H23 > 17.6 µM | RXF 393 > 24.7 µM | SF-295 > 100 µM | SK-OV-3 > 30.4 µM | SK-MEL-28 > 32.9 µM | T47D > 8.57 µM | K562 > 9.51 µM | RPMI-8226 > 11.5 µM | A549 > 56.6 µM | NCI-H226 > 48.3 µM | OVCAR-5 > 59.7 µM

CN(C)CC(O)CNC(=O)Nc1ccccc1 (stereo unspecified)
inactive: SK-MEL-5 > 100 µM | MCF7 > 100 µM | ACHN > 100 µM | SNB-75 > 100 µM | M14 > 100 µM | UO-31 > 100 µM | NCI-H23 > 100 µM | RXF 393 > 100 µM | SF-295 > 100 µM | SK-OV-3 > 100 µM | SK-MEL-28 > 100 µM | T47D > 100 µM | K562 > 100 µM | RPMI-8226 > 100 µM | A549 > 100 µM | NCI-H226 > 100 µM | OVCAR-5 > 100 µM

CC1C2Cc3ccc(O)cc3C1(C)CCN2C (stereo unspecified)
inactive: SK-MEL-5 > 100 µM | MCF7 > 100 µM | ACHN > 100 µM | MOLT-4 > 100 µM | SNB-75 86.7 µM | M14 > 100 µM | UO-31 > 100 µM | NCI-H23 > 100 µM | RXF 393 > 100 µM | SF-295 > 100 µM | SK-OV-3 > 100 µM | SK-MEL-28 > 100 µM | T47D > 100 µM | K562 > 100 µM | RPMI-8226 > 100 µM | A549 > 100 µM | NCI-H226 > 100 µM | OVCAR-5 > 100 µM

Oc1ccc(-c2c3ccccc3c(-c3ccc(OCCBr)cc3)c3ccccc23)cc1
inactive: SK-MEL-5 19.1 µM | MCF7 14.4 µM | ACHN 29.1 µM | MOLT-4 > 100 µM | SNB-75 25.1 µM | M14 21 µM | UO-31 67.6 µM | NCI-H23 15.6 µM | RXF 393 24.7 µM | SF-295 16 µM | SK-OV-3 52.7 µM | SK-MEL-28 27.9 µM | T47D 35.7 µM | K562 42.1 µM | RPMI-8226 31.1 µM | A549 28.4 µM | NCI-H226 20 µM | OVCAR-5 27.1 µM

Cc1ccc(-c2cn3c(nc4ccccc43)c(-c3ccccc3)n2)cc1
inactive: SK-MEL-5 > 100 µM | MCF7 27.7 µM | ACHN 34 µM | MOLT-4 > 100 µM | SNB-75 8.45 µM | M14 > 100 µM | UO-31 > 49.1 µM | NCI-H23 24 µM | RXF 393 25.1 µM | SF-295 19.8 µM | SK-OV-3 18.3 µM | SK-MEL-28 > 100 µM | T47D 32.1 µM | K562 > 100 µM | RPMI-8226 > 100 µM | A549 > 100 µM | NCI-H226 58.3 µM | OVCAR-5 > 100 µM

CC(CNC(=O)c1ccccc1)(CNC(=O)c1ccccc1)[N+](=O)[O-]
inactive: SK-MEL-5 > 100 µM | MCF7 > 100 µM | ACHN > 100 µM | MOLT-4 > 100 µM | SNB-75 51.3 µM | M14 > 100 µM | UO-31 23.8 µM | NCI-H23 > 100 µM | RXF 393 > 100 µM | SF-295 > 100 µM | SK-OV-3 > 100 µM | T47D > 100 µM | K562 > 100 µM | RPMI-8226 > 100 µM | A549 > 100 µM | NCI-H226 > 100 µM | OVCAR-5 > 100 µM

COC(=O)[C@H](CNC(=O)/C=C/c1ccc(OC(C)=O)c(OC(C)=O)c1)NC(=O)/C=C/c1ccc(OC(C)=O)c(OC(C)=O)c1
inactive: SK-MEL-5 62.7 µM | MCF7 > 100 µM | ACHN > 100 µM | MOLT-4 > 100 µM | SNB-75 > 100 µM | M14 > 100 µM | NCI-H23 > 100 µM | RXF 393 > 100 µM | SK-OV-3 > 100 µM | SK-MEL-28 > 100 µM | T47D 44.4 µM | K562 > 100 µM | RPMI-8226 > 100 µM | A549 > 100 µM | NCI-H226 > 100 µM | OVCAR-5 > 100 µM

CN1N=C(c2ccccc2)c2cc(Cl)ccc2N=C1N/N=C/c1ccc(N(C)C)cc1
inactive: SK-MEL-5 > 100 µM | MCF7 > 100 µM | ACHN > 100 µM | MOLT-4 62.7 µM | SNB-75 > 100 µM | M14 > 100 µM | UO-31 > 100 µM | NCI-H23 > 100 µM | RXF 393 > 100 µM | SF-295 > 100 µM | SK-OV-3 > 100 µM | SK-MEL-28 > 100 µM | T47D > 100 µM | K562 64.3 µM | RPMI-8226 70.5 µM | A549 > 100 µM | NCI-H226 58.1 µM

O=S1(=O)OCCCOS(=O)(=O)C1(Br)Br
inactive: SK-MEL-5 > 100 µM | MCF7 > 100 µM | ACHN > 100 µM | MOLT-4 > 100 µM | SNB-75 > 100 µM | M14 > 100 µM | UO-31 > 100 µM | NCI-H23 > 100 µM | RXF 393 > 100 µM | SF-295 > 100 µM | SK-OV-3 > 100 µM | SK-MEL-28 > 100 µM | T47D > 100 µM | RPMI-8226 > 100 µM | A549 > 100 µM | NCI-H226 > 100 µM | OVCAR-5 > 100 µM

Nc1nc(Cl)nc(NCc2ccccc2)n1
inactive: SK-MEL-5 > 100 µM | MCF7 > 100 µM | ACHN > 100 µM | MOLT-4 > 100 µM | SNB-75 > 100 µM | M14 > 100 µM | NCI-H23 > 100 µM | RXF 393 > 100 µM | SF-295 > 100 µM | SK-OV-3 > 100 µM | SK-MEL-28 > 100 µM | T47D > 100 µM | K562 > 100 µM | RPMI-8226 > 100 µM | A549 > 100 µM | NCI-H226 > 100 µM | OVCAR-5 > 100 µM
